Here are results for ten compounds from patent US7589078B2, “Anti-viral nucleoside analogs and methods for treating viral infections, especially HIV infections” (Yale University, priority 2003, dated 2009).

SMILES strings stand for the structures. Like-named read-outs stand apart in the source and are kept apart here.

One data set concerns H-9 cells. In words: Toxicity in H-9 cells alone and in combination (Coulter Counter). The class given is cell-based. The following applies: H-9 cells, 48 h. The text has this: (§1) The basic procedures are similar.
Data set [1] has as its system mtDNA content of CEM cells. In words: Mitochondrial DNA content in CEM cells (Southern blot). It counts as cell-based. The following applies: for IC50: four days, read-out: Mitochondrial DNA Content ID50. Here is the method: Mitochondrial DNA: The effect of nucleoside analogs on mtDNA content was assessed as described previously (2). […] Cells treated with drugs at various concentrations either as single agents or in combination were grown for four days. Cells were then harvested, treated with proteinase K and DNase free RNase. Extracts were applied to nylon membranes and hybridized with an mtDNA probe. After stripping the membrane the load was normalized by rehybridizing the membrane with an Alu probe. Blots were quantitated with a Molecular Dynamics personal densitometer SI with ImageQuaNT analysis software.

For the next data set, the system named is CEM cells. In words: Cellular toxicity in CEM cells (cell counts). Conditions: for IC50: read-out: Cellular ID50.
In data set [2] the test system is HIV-1 strain IIIB. Description: Antiviral activity in MT-2 cells infected with HIV-1 strain IIIB (MTT). It counts as cell-based. Here is the method: Determination of antiviral activity: Compounds were tested in MT-2 cells infected with HIV-1 strain IIIB essentially as described previously (31). […]. Calculations of the percent protection and isobologram combination studies are described (12).

The target in data set [3] is T1, thymidine kinase (TK-1) (Homo sapiens, UniProt P04183).
T1 sequence (P04183 1-234): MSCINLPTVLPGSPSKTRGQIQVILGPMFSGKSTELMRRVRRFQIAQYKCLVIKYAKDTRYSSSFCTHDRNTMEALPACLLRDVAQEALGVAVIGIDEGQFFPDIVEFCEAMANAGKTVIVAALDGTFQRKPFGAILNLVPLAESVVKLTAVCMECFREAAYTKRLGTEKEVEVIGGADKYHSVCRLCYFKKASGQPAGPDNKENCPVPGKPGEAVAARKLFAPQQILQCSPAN
Description: Monophosphorylation of analogs by thymidine kinase. It counts as biochemical. On the set-up: phosphorylated by thymidine kinase (TK-1) from CEM cells; endogenous in cells. The following applies: for Relative Vmax: 250 μM dThd or analog, 2.4 mM ATP, 0.07 unit TK-1, 37° C., 285 min, dThd = 100. On the procedure: Monophosphorylation of Analogs by Thymidine Kinase: All the analogs were tested for their ability to be phosphorylated by thymidine kinase (TK-1) from CEM cells. This enzyme was purified by an affinity column technique developed in this laboratory (7). […] At the end of the incubation time the reaction was stopped by the addition of 3 parts cold HPLC grade methanol. After incubating on ice for at least 10 min. the methanol insoluble material is precipitated by centrifugation and the methanol soluble supernatants were placed into clean microfuge tubes. These samples were brought to dryness in a Speedvac Centrifuge. The samples were dissolved in water and separated on a Shimatzu HPLC model SCL 10Avp using a gradient of water to 300 mM potassium phosphate and a Whatman 10/25 particle SAX column. Km and relative Vmax studies were done in a similar fashion, using the same mixture and different amounts of substrate and enzyme.

In another data set the test system is MT-2 cells. In words: Cellular toxicity, MT-2 cell growth. The class given is cell-based. The following applies: MT-2 cells; read-out: ID50: concentration required to inhibit MT-2 cell growth by 50%.
Text: as §1

For data set [4], the target named is T1, thymidine kinase (TK-1). Description: Thymidine kinase assay with added nucleoside ([14C]-dThd to dTMP). Conditions: [14C]-dThd 25 μM, added nucleoside 250 μM; compared to reactions with no additions.
Description: After two additional washes in ethanol, the discs were dried and placed in scintillation vials that contained 5 ml SafeScint Scintillation Cocktail (American Bioanalytical, Natick, Mass.). The amount of radioactivity, which represents the amount of dTMP formed, was quantitated in a Beckman LS5000TD Scintillation Counter (Beckman Instruments Inc., Palo Alto, Calif.).
For data set [5], the system named is HIV-1 strain IIIB. Conditions: MT-2 cells; EC50 reported previously (17); read-out: EC50: effective concentration required to achieve 50% protection from HIV in MT-2 cells; cited from earlier work.
The target in data set [6] is T2, thymidine phosphorylase (TP) (Homo sapiens, UniProt P19971).
T2 construct: using a partially purified prepartion of human liver extract (28) as a source of the thymidine phosphorylase (TP); from tissue; host or cells: human liver extract, partially purified
T2 sequence (P19971 11-482): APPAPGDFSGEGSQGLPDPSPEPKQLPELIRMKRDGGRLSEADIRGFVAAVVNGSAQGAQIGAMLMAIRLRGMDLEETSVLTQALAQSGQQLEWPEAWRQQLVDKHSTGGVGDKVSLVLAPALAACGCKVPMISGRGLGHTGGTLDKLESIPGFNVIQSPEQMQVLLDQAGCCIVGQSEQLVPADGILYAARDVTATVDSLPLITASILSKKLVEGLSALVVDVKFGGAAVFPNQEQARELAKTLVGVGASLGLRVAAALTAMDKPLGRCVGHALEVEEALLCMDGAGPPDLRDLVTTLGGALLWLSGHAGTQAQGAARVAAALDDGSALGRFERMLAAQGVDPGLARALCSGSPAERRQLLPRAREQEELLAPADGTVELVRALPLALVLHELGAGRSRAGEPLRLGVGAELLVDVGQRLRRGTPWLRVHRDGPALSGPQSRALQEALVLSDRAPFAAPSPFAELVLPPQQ
Description: Thymidine phosphorylase assay. The class given is in vitro ADME. The following applies: partially purified TP from human liver, 100 μM nucleoside, 37° C., FIG. 11. Here is the method: Thymidine Phosphorylase Assays: Nucleoside analogs (100 μM) were incubated in 75 mM potassium phosphate buffer pH 7.3 at 37° C. using a partially purified prepartion of human liver extract (28) as a source of the thymidine phosphorylase (TP). After incubation, the reaction was stopped by the addition of trichloroacetic acid to a final concentration of 15%. The samples were then incubated on ice. After the acid insoluble components were removed by centrifugation, the supernatant was neutralized by two extractions with one half volume of trioctylamine/freon (45:55). The aqueous supernatants were examined by HPLC using the Beckman ODS column method, as described in Acid Stability Studies.

Setting [7] is: Human immunodeficiency virus 1, MT2, MT-2/HIV IIIB system, FIG. 10, read-out: EC50 for single agents (isobologram study).
Where [8] appears, read: CEM cells, four day cell growth, cell counts vs untreated controls.
Setting [9] is: MT-2 cells, HIV-1 IIIB, read-out: EC50: effective concentration required to achieve 50% protection from HIV in MT-2 cells.

`Nc1ccn([C@@H]2CS[C@H](CO)O2)c(=O)n1` [3TC, β-L-2′,3′-dideoxy-3′-thiacytidine, reference compound]: the “Percent of Untreated Controls” value was 99 ± 3% in the data set on H-9 cells (5 μM 3TC alone), 94 ± 3% in the data set with H-9 cells (20 μM 3TC alone) and 108 ± 12% with H-9 cells (100 μM 3TC alone). For the same compound, the IC50 in [1] (Homo sapiens, CCRF-CEM, 96 h) is more than 200 µM; in the data set with CEM cells (Homo sapiens, CCRF-CEM, 96 h), more than 200 µM. In addition, the “Mitochondrial DNA content, percentage of untreated CEM control cells” value in data set [1] (at 200 μM) is on record as 114 ± 2%. Further, in the data set with CEM cells (CEM cells, at 200 μM), the “Cell count, percentage of untreated CEM control cells” value (from here on “Cell count, percentage”) is listed as 77 ± 28%. The EC50 in the data set with HIV-1 strain IIIB [2] (setting [7]) was 1 µM.

Take `C=CC[C@@]1(CO)C=C[C@H](n2cc(C)c(=O)[nH]c2=O)O1` [4′-allyl D4T]: at thymidine kinase (TK-1) [3], the “Relative Vmax” value was determined as 0.4 ± 0.2. For the same compound, the IC50 in the data set with MT-2 cells and with CEM cells (setting [8]) was more than 100 µM throughout. Besides, the “Percent of Activity” value on thymidine kinase (TK-1) [4] is on record as 110.8 ± 9.0%. Besides, the EC50 in the data set with HIV-1 strain IIIB [2] (setting [9]) is more than 100 µM.

`Cc1cn([C@H]2C=C[C@@](C#N)(CO)O2)c(=O)[nH]c1=O` [4′-cyano D4T]: at thymidine kinase (TK-1) [3], the “Relative Vmax” value is 1.1 ± 0.2. The IC50 (with MT-2 cells; in [1]; in the data set with CEM cells (setting [8])) was more than 100 µM each time. Moreover, the “Mitochondrial DNA content, percentage of untreated CEM control cells” value in [1] (at 100 μM) is on record as 264 ± 23%. Besides, in the data set with CEM cells (CEM cells, at 100 μM), the “Cell count, percentage” value worked out at 60 ± 1%. For the same compound, the “Percent of Activity” value on thymidine kinase (TK-1) [4] is on record as 71.8 ± 8.2%. In addition, in the data set on HIV-1 strain IIIB [2] (MT-2/IIIB anti HIV-1 system, FIG. 8), the “Anti-HIV activity compared with D4T” value was “less active than D4T”. Also, the EC50 in the data set on HIV-1 strain IIIB [2] (setting [9]) stood at 7 ± 2.6 µM.

Take `Cc1cn([C@H]2C=C[C@@](C#CCl)(CO)O2)c(=O)[nH]c1=O` [4′-ethynylchloro D4T]: at thymidine kinase (TK-1) [3], the “Relative Vmax” value came to 3.9 ± 1.0. Also, the IC50 in the data set with MT-2 cells was determined as 63.3 ± 20.8 µM; in the data set on CEM cells (setting [8]), 62.6 ± 10 µM. Besides, at thymidine kinase (TK-1) [4], the “Percent of Activity” value is 53.2 ± 9.2%. In the data set on HIV-1 strain IIIB [2] (setting [9]), the EC50 is more than 100 µM.

With `Cc1cn([C@H]2C=C[C@@](C)(CO)O2)c(=O)[nH]c1=O` [4′-methyl D4T], on thymidine kinase (TK-1) [3], the “Relative Vmax” value was determined as 1.6 ± 0.5. Also, the “Rate of conversion to the monophosphate form” value at thymidine kinase (TK-1) [3] (purified human TK-1) was “approximately 2% of dThd”. Also, in the data set with HIV-1 strain IIIB [5], the EC50 is more than 100 µM. Moreover, the IC50 in the data set with MT-2 cells and with CEM cells (setting [8]) was more than 100 µM in each case. For the same compound, the “Cell count, percentage” value in the data set with CEM cells (CEM cells, at 100 μM) is 114 ± 2%. The “Percent of Activity” value on thymidine kinase (TK-1) [4] was found to be 103.8 ± 9.9%.

Take `C=C[C@@]1(CO)C=C[C@H](n2cc(C)c(=O)[nH]c2=O)O1` [4′-vinyl D4T]: the “Relative Vmax” value on thymidine kinase (TK-1) [3] is given as 1.8 ± 0.5. Moreover, the “Rate of conversion to the monophosphate form” value on thymidine kinase (TK-1) [3] (purified human TK-1) is “approximately 2% of dThd”. Also, the EC50 with HIV-1 strain IIIB [5] was more than 100 µM. Further, the IC50 in the data set with MT-2 cells and in the data set with CEM cells (setting [8]) was more than 100 µM throughout. In addition, the “Cell count, percentage” value in the data set with CEM cells (CEM cells, at 100 μM) amounted to 78 ± 21%. Moreover, on thymidine kinase (TK-1) [4], the “Percent of Activity” value is listed as 99.5 ± 6.9%.

For the compound `Cc1cn([C@H]2C[C@H](N=[N+]=[N-])[C@@H](CO)O2)c(=O)[nH]c1=O` [AZT, 3′-Azido-3′-deoxythymidine, reference compound], on thymidine kinase (TK-1) [3], the “Relative Vmax” value was 55.5 ± 9.7. Moreover, at thymidine kinase (TK-1) [3] (purified human TK-1), the “Rate of phosphorylation by TK-1, in words” value is “half as fast as dThd”. In addition, on thymidine kinase (TK-1) [4], the “Percent of Activity” value turned out to be 5.4 ± 2.3%.

For the compound `Nc1nc(=O)n([C@@H]2C=C[C@H](CO)O2)cc1F` [LFd4C, β-L-2′,3′-dideoxy-2′,3′-didehydro-5-fluorocytidine, reference compound], the “Percent of Untreated Controls” value worked out at 73 ± 9% with H-9 cells (5 μM LFd4C alone) and 56 ± 4% in the data set with H-9 cells (10 μM LFd4C alone). The EC50 with HIV-1 strain IIIB [2] (setting [7]) worked out at 0.18 µM.

For the compound `Cc1cn([C@H]2C[C@H](O)[C@@H](CO)O2)c(=O)[nH]c1=O` [dThd], the “Break down by thymidine phosphorylase” value in data set [6] is “broke down very quickly”.

For `Nc1ccn([C@H]2CC[C@@H](CO)O2)c(=O)n1` [ddC, 2′,3′-dideoxycytidine, reference compound], the IC50 is 0.15 ± 0.12 µM in [1] (Homo sapiens, CCRF-CEM, 96 h) and 5.5 ± 1.8 µM in the data set with CEM cells (Homo sapiens, CCRF-CEM, 96 h).
